In patent publication US20240041976A1, “COMPOSITION AND USE” (priority 2020, published 2024):

What was measured:
S. aureus USA 300 = test: Planktonic cell growth inhibition assay (MIC50, liquid culture); assay type: cell-based, Staphylococcus aureus
Description: (§1) Growth inhibition assays were performed in 96-well microtiter plates as described previously (Chi and Holo, 2018, supra). Briefly, 135 μl of TSB were dispensed in each well of a microtiter plate (according to the number of bacterial strains tested) except in the wells of the first row. The antimicrobials were diluted in TSB to working concentrations in a final volume of 285 μl and dispensed in the wells of the first row. The working concentrations were 100 μg/μl for garvicin KS, 10 μg/μl for micrococcin P1 and 1 mg/ml for penicillin G. From the first row, 150 μl of the antimicrobials were then serially diluted (two-fold dilutions) in a sequential fashion until the last row of the plate. Finally, 15 μl of a fresh O/N culture of each strain were added in the appropriate wells to reach a final volume of 150 μl in each well. The plates were then incubated at 37° C. for 24 h. The growth inhibition was expressed as minimum inhibitory concentration (MIC50), which refers to the minimum concentration of the antimicrobial needed to reduce at least 50% of the microbial growth compared to the untreated control. The MIC50 was assessed by optical density readings at 600 nm (O.D.600).
(§2) Synergistic interactions between antimicrobials were determined using the fractional inhibition concentration (FIC). The FIC values were calculated as follows: the sum of the FIC =FICa+FICb+FICc, where the FICa means MIC of A in combination/MIC of A alone, FICb means MIC of B in combination/MIC of B, and FICc means MIC of C in combination/MIC of C alone. Effects were considered as synergistic if FIC was ≤0.5 for two components mixture and ≤0.75 for three components mixture.

S.a. 3255 = test: as above; assay type: cell-based, Staphylococcus aureus
Description: as §1, §2

S. aureus Newman = test: as above; assay type: cell-based, Staphylococcus aureus
Description: as §1, §2

S. aureus ATTC 33591 = test: as above; assay type: cell-based, Staphylococcus aureus
Description: as §1, §2

S. aureus ATTC 10832 = test: as above; assay type: cell-based, Staphylococcus aureus
Description: as §1, §2

S. aureus ATTC 29213 = test: as above; assay type: cell-based, Staphylococcus aureus
Description: as §1, §2

S. haemolyticus 4072 = test: microbe, parasite or virus in culture; conditions: for MIC of the component in combination: 4072
Description: as §1, §2
(§3) Bacteriocins and antimicrobial assays. […] These bacteriocins were all solubilized in 0.1% (vol/vol) trifluoracetic acid (TFA; Sigma-Aldrich). […] Cell growth inhibition assays and antimicrobial synergy determination was performed in line with Example 1.
(§4) To investigate whether there was synergy between the three bacteriocins (K1-EJ, GarKS and MP1), a checkboard antimicrobial assay was performed. The selected strains were treated for 5, 24 and 48 h with a range of concentrations of K1-EJ, GarKS and MP1 alone or in different combinations.

S. haemolyticus 4068 = test: microbe, parasite or virus in culture; conditions: for MIC of the component in combination: 4068
Description: as §1, §2, §3, §4

S. haemolyticus 4069 = test: microbe, parasite or virus in culture; conditions: for MIC of the component in combination: 4069
Description: as §1, §2, §3, §4

S. haemolyticus 4073 = test: microbe, parasite or virus in culture; conditions: for MIC of the component in combination: 4073
Description: as §1, §2, §3, §4

S. haemolyticus 4071 = test: microbe, parasite or virus in culture; conditions: for MIC of the component in combination: 4071
Description: as §1, §2, §3, §4

[1] = garvicin KS + micrococcin P1 + penicillin G
[2] = Staphylococcus aureus, individual component, read-out: MIC50

C/C=C(\NC(=O)c1csc(-c2csc(-c3ccc4c(n3)-c3csc(n3)[C@H]([C@@H](C)O)NC(=O)c3csc(n3)[C@H](C(C)C)NC(=O)c3csc(n3)/C(=C/C)NC(=O)[C@H]([C@@H](C)O)NC(=O)c3csc-4n3)n2)n1)C(=O)NC[C@@H](C)O [MP1, micrococcin P1]
MIC50 (S. aureus USA 300; Staphylococcus aureus, USA300, individual component, read-out: MIC50): 0.63 µg/mL
MIC50 of the component in combination (S. aureus USA 300; garvicin KS + micrococcin P1): 0.156 µg/mL
MIC50 of the component in combination (S. aureus USA 300; [1]): 0.63 µg/mL
MIC50 (S.a. 3255; [2]): 10 µg/mL
MIC50 of the component in combination (S.a. 3255; garvicin KS + micrococcin P1): 1.3 µg/mL
MIC50 of the component in combination (S.a. 3255; [1]): <0.078 µg/mL
MIC50 (S. aureus Newman; [2]): 0.313 µg/mL
MIC50 of the component in combination (S. aureus Newman; garvicin KS + micrococcin P1): 0.313 µg/mL
MIC50 of the component in combination (S. aureus Newman; [1]): <0.078 µg/mL
MIC50 (S. aureus ATTC 33591; Staphylococcus aureus, ATTC33591, individual component, read-out: MIC50): > 10 µg/mL
MIC50 of the component in combination (S. aureus ATTC 33591; garvicin KS + micrococcin P1): 1.3 µg/mL
MIC50 of the component in combination (S. aureus ATTC 33591; [1]): 1.3 µg/mL
MIC50 (S. aureus ATTC 10832; Staphylococcus aureus, ATTC10832, individual component, read-out: MIC50): 0.63 µg/mL
MIC50 of the component in combination (S. aureus ATTC 10832; garvicin KS + micrococcin P1): 0.63 µg/mL
MIC50 of the component in combination (S. aureus ATTC 10832; [1]): <0.078 µg/mL
MIC50 (S. aureus ATTC 29213; Staphylococcus aureus, ATTC29213, individual component, read-out: MIC50): 2.5 µg/mL
MIC50 of the component in combination (S. aureus ATTC 29213; garvicin KS + micrococcin P1): 1.3 µg/mL
MIC50 of the component in combination (S. aureus ATTC 29213; [1]): 0.31 µg/mL
MIC of the component in combination (S. haemolyticus 4072; 5 h, GarKS + MP1): 0.073 µg/mL
MIC of the component in combination (S. haemolyticus 4072; 5 h, K1-EJ + GarKS + MP1): 0.068 µg/mL
MIC of the component in combination (S. haemolyticus 4072; 5 h, K1-EJ + MP1): 0.036 µg/mL
MIC of the component in combination (S. haemolyticus 4072; 24 h, GarKS + MP1): 0.16 µg/mL
MIC of the component in combination (S. haemolyticus 4072; 24 h, K1-EJ + GarKS + MP1): 0.16 µg/mL
MIC of the component in combination (S. haemolyticus 4072; 24 h, K1-EJ + MP1): 0.15 µg/mL
MIC of the component in combination (S. haemolyticus 4072; 48 h, GarKS + MP1): 0.31 µg/mL
MIC of the component in combination (S. haemolyticus 4072; 48 h, K1-EJ + GarKS + MP1): 0.58 µg/mL
MIC of the component in combination (S. haemolyticus 4072; 48 h, K1-EJ + MP1): 0.16 µg/mL
MIC (S. haemolyticus 4072; Staphylococcus haemolyticus, 4072, 5 h): 0.039 µg/mL
MIC (S. haemolyticus 4072; Staphylococcus haemolyticus, 4072, 24 h): > 10 µg/mL
MIC (S. haemolyticus 4072; Staphylococcus haemolyticus, 4072, 48 h): 0.63 µg/mL
MIC of the component in combination (S. haemolyticus 4068; 5 h, GarKS + MP1): 0.02 µg/mL
MIC of the component in combination (S. haemolyticus 4068; 5 h, K1-EJ + GarKS + MP1): 0.032 µg/mL
MIC of the component in combination (S. haemolyticus 4068; 5 h, K1-EJ + MP1): 0.02 µg/mL
MIC of the component in combination (S. haemolyticus 4068; 24 h, GarKS + MP1): 0.032 µg/mL
MIC of the component in combination (S. haemolyticus 4068; 24 h, K1-EJ + GarKS + MP1): 0.078 µg/mL
MIC of the component in combination (S. haemolyticus 4068; 24 h, K1-EJ + MP1): 0.078 µg/mL
MIC of the component in combination (S. haemolyticus 4068; 48 h, GarKS + MP1): 0.068 µg/mL
MIC of the component in combination (S. haemolyticus 4068; 48 h, K1-EJ + GarKS + MP1): 0.28 µg/mL
MIC of the component in combination (S. haemolyticus 4068; 48 h, K1-EJ + MP1): 0.072 µg/mL
MIC (S. haemolyticus 4068; Staphylococcus haemolyticus, 4068, 5 h): 0.02 µg/mL
MIC (S. haemolyticus 4068; Staphylococcus haemolyticus, 4068, 24 h): 0.023 µg/mL
MIC (S. haemolyticus 4068; Staphylococcus haemolyticus, 4068, 48 h): 0.078 µg/mL
MIC of the component in combination (S. haemolyticus 4069; 5 h, GarKS + MP1): 0.16 µg/mL
MIC of the component in combination (S. haemolyticus 4069; 5 h, K1-EJ + GarKS + MP1): 0.068 µg/mL
MIC of the component in combination (S. haemolyticus 4069; 5 h, K1-EJ + MP1): 0.15 µg/mL
MIC of the component in combination (S. haemolyticus 4069; 24 h, GarKS + MP1): 2.5 µg/mL
MIC of the component in combination (S. haemolyticus 4069; 24 h, K1-EJ + GarKS + MP1): 0.33 µg/mL
MIC of the component in combination (S. haemolyticus 4069; 24 h, K1-EJ + MP1): 2.3 µg/mL
MIC of the component in combination (S. haemolyticus 4069; 48 h, GarKS + MP1): 5 µg/mL
MIC of the component in combination (S. haemolyticus 4069; 48 h, K1-EJ + GarKS + MP1): 0.58 µg/mL
MIC of the component in combination (S. haemolyticus 4069; 48 h, K1-EJ + MP1): 4.8 µg/mL
MIC (S. haemolyticus 4069; Staphylococcus haemolyticus, 4069, 5 h): 0.15 µg/mL
MIC (S. haemolyticus 4069; Staphylococcus haemolyticus, 4069, 24 h): > 10 µg/mL
MIC (S. haemolyticus 4069; Staphylococcus haemolyticus, 4069, 48 h): > 10 µg/mL
MIC of the component in combination (S. haemolyticus 4073; 5 h, GarKS + MP1): 0.02 µg/mL
MIC of the component in combination (S. haemolyticus 4073; 5 h, K1-EJ + GarKS + MP1): 0.033 µg/mL
MIC of the component in combination (S. haemolyticus 4073; 5 h, K1-EJ + MP1): 0.02 µg/mL
MIC of the component in combination (S. haemolyticus 4073; 24 h, GarKS + MP1): 0.073 µg/mL
MIC of the component in combination (S. haemolyticus 4073; 24 h, K1-EJ + GarKS + MP1): 0.078 µg/mL
MIC of the component in combination (S. haemolyticus 4073; 24 h, K1-EJ + MP1): 0.036 µg/mL
MIC of the component in combination (S. haemolyticus 4073; 48 h, GarKS + MP1): 0.083 µg/mL
MIC of the component in combination (S. haemolyticus 4073; 48 h, K1-EJ + GarKS + MP1): 0.16 µg/mL
MIC of the component in combination (S. haemolyticus 4073; 48 h, K1-EJ + MP1): 0.01 µg/mL
MIC (S. haemolyticus 4073; Staphylococcus haemolyticus, 4073, 5 h): 0.022 µg/mL
MIC (S. haemolyticus 4073; Staphylococcus haemolyticus, 4073, 24 h): 0.072 µg/mL
MIC (S. haemolyticus 4073; Staphylococcus haemolyticus, 4073, 48 h): 0.14 µg/mL
MIC of the component in combination (S. haemolyticus 4071; 5 h, GarKS + MP1): 0.068 µg/mL
MIC of the component in combination (S. haemolyticus 4071; 5 h, K1-EJ + GarKS + MP1): 0.072 µg/mL
MIC of the component in combination (S. haemolyticus 4071; 5 h, K1-EJ + MP1): 0.042 µg/mL
MIC of the component in combination (S. haemolyticus 4071; 24 h, GarKS + MP1): 0.63 µg/mL
MIC of the component in combination (S. haemolyticus 4071; 24 h, K1-EJ + GarKS + MP1): 0.16 µg/mL
MIC of the component in combination (S. haemolyticus 4071; 24 h, K1-EJ + MP1): 0.14 µg/mL
MIC of the component in combination (S. haemolyticus 4071; 48 h, GarKS + MP1): 0.65 µg/mL
MIC of the component in combination (S. haemolyticus 4071; 48 h, K1-EJ + GarKS + MP1): 0.33 µg/mL
MIC of the component in combination (S. haemolyticus 4071; 48 h, K1-EJ + MP1): 0.3 µg/mL
MIC (S. haemolyticus 4071; Staphylococcus haemolyticus, 4071, 5 h): 0.043 µg/mL
MIC (S. haemolyticus 4071; Staphylococcus haemolyticus, 4071, 24 h): > 10 µg/mL
MIC (S. haemolyticus 4071; Staphylococcus haemolyticus, 4071, 48 h): > 10 µg/mL
